Test results reported in patent US20260263555A1, “ANNEXIN A1 DELAYED DOSING” (Reso Ther Pharma A/S, priority 2023, published 2026).
No end group written: not given here.

Test system: rat model of acute myocardial infarction
Experiment: Peptide 1 treatment for 1 day versus 3 days, cardiac function by transthoracic echocardiography in a rat model of acute myocardial infarction
Assay type: in vivo, male Sprague Dawley rats
Procedure: Myocardial infarction was induced in male Sprague Dawley rats. On day 0 rats were anaesthetized with a mixture of 2 to 2.2% isoflurane USP (Abbot Laboratories, Montreal Canada) in oxygen, and placed on a heating pad (set at 37° C.) to maintain body temperature. The animals were intubated and immediately ventilated with a mixture of 2 to 2.2% isoflurane USP (Abbot Laboratories, Montreal Canada) in oxygen by means of a positive-pressure rodent respirator (CWE model SAR-830/P) set at ≈10 mL/kg bodyweight at a frequency of 70-80 strokes/min. The pericardium was opened to expose the heart and a 5-0 wax coated braided silk suture (Sofsilk™) was placed around the left anterior descending (LAD) coronary artery, approximately 2-3 mm below the left atrium. The suture was briefly snared to verify the size and location of myocardial ischemia based on colour change and was then tied to produce a large anterolateral myocardial infarction (affecting around 45% of the LV). The suture was kept in place for 30 minutes (30 minutes of ischemia) followed by reperfusion. A group of rats receiving sham procedure was also included. […] Fourteen days after ischemia, cardiac function was assessed by transthoracic echocardiography (echocardiograph model Q9, ChisonMedical Imaging Co. connected to a Chison 12.0 MHz probe).

AMVSEFLKQAWFIENEEQEYVQTLKSSKGGPGSAVSPYPTFNPSSDV (AMVSEFLKQAWFIENEEQEYVQTLKSSKGGPGSAVSPYPTFNPSSDV-NH2; ends and bridges not checked) [Peptide 1]
improvement of cardiac output compared to vehicle treatment (14 days post ischemia, tail vein, three daily dosages (0, 3, 6 h post reperfusion) for 1 day or 3 days, 10, 30 or 100 ug/kg): 20-30% | long-term cardiac function (at least three dosages, echocardiography 14 days after ischemia, vs vehicle): significantly improves long-term cardiac function
